These are literature values, as cited in US20020143065A1, “Developing a delivery system for multi-pharmaceutical active materials at various release rates” (priority 2000, published 2002).

The conditions of data set [1]: gynecological patients, intravenous patient-controlled analgesia.
For data set [2] the following is noted: compared with tramadol racemate.

Molecules are shown by their SMILES.

On to `COc1cccc(C2(O)CCCCC2CN(C)C)c1` (racemic) [racemate, tramadol], for which, in data set [1], the analgesic efficacy entry was “more efficacy than (−) tramadol enantiomer”; the “side effects (nausea and vomiting)” value is reported as “no more side effects than (+) tramadol enantiomer”.

As to `COc1cccc([C@@]2(O)CCCC[C@@H]2CN(C)C)c1` (single isomer, unassigned) [(+) enantiomer, (+) tramadol], the opiate-like analgesic effect entry in data set [2] is recorded as “considerably enhanced compared with that of tramadol”. Further, in data set [1], the analgesic efficacy result is given as “more potent in producing analgesia”; the “side effects (nausea and vomiting)” value was “produced more nausea and vomiting”.
